Experimental data as given in patent US20230285294A1, “METHOD AND SYSTEM FOR OTOTOPICAL DELIVERY USING NANOPARTICLES FOR EAR INFECTION DIAGNOSIS AND TREATMENT” (THE BOARD OF TRUSTEES OF THE LELAND STANFORD JUNIOR …, priority 2020, published 2023).

Tested on: eardrum
Test: Confocal microscopy of ear sections: permeation of vesicles through the eardrum into the middle and inner ear
Description: Further consideration of the various images in FIGS. 10A-11D one may observe from these confocal images of eardrum and vesicles penetration into the middle ear at different time points. To verify the permeation of the formulated vesicles through the eardrum we looked at the ear sections under confocal microscopy. […] (See FIG. 11B).
FIGS. 12A-14D relate to a series of confocal imaging at higher magnification of tympanic membrane.
FIG. 15A is showing imaging specificity of TF-RnB in red. FIG. 15B is showing imaging specificity to DAPI in blue. FIG. 15C is showing a color composite overlay of the images in FIGS. 15A and 15B.
These confocal images from inner ear show particle penetrations beyond the middle ear to inner ear. (FIG. 15C). As such, it is believed that potential applications of various embodiments of a liposomal nanoparticle may be used for inner ear drug delivery.

CCN(CC)c1ccc2c(-c3ccccc3C(=O)O)c3ccc(=[N+](CC)CC)cc-3oc2c1.[Cl-] [pure RhB, Rhodamine B]
penetration of tympanic membrane layers (confocal imaging at higher magnification) (6 hours, FIGS. 12D and 14D): stays on the surface of tympanic membrane without any penetration | penetration through eardrum into middle ear (confocal fluorescence) (6 h post-treatment): did not observe any fluorescent
